The results in this text go back to patent US20220146497A1, “Method of Modulating a Fibrotic Condition” (The Procter & Gamble Company, priority 2019, published 2022).

The subject of one series is COL1A1. Nature of the series: Red-COL1A1 mCherry reporter assay (fluorescence from reporter downstream of the endogenous COL1A1 promoter). The series is classed as cell-based, human. The conditions noted are these: increasing doses, immortalized tertBJ fibroblasts, FIG. 3A. The source says:
In this example, RNA interference (“RNAi”) screening was used to identify genes that appear to inhibit collagen synthesis. Immortalized human skin fibroblasts (BJhTERT, available from ATCC, Manassas, Va. were modified to place an mCherry reporter gene downstream of the endogenous promoter for COL1A1 using […] (TALENs). COL1A1 is well known for its role in the synthesis of Type I collagen, sometimes referred to as collagen I, which is a fibrillar collagen that accounts for over 90% of the collagen found in the human body. The reporter gene codes for the mCherry RFP, which can be quantitated using known fluorescent protein detection techniques. Transforming growth factor beta (“TGFβ”), a well-known COL1A1 activating cytokine, was used in a fluorescence-activated cell sorting (“FACS”) technique to select for a cell line with low endogenous expression and high levels of inducible expression of the mCherry gene. […]
Automated image acquisition and analysis was used to quantitate the fluorescent protein. […] Images were analyzed using METAXPRESS brand high-content image analysis software from Molecular Devices. The percentage of cells with positive nuclear-localizing mCherry signal above background was determined using the “Translocation-Enhanced” module. […]
This increased fluorescence directly correlates to increased collagen synthesis. […]

Series [1] relates to immortalized tertBJ fibroblasts cells. The series can be described thus: Cell count by DAPI staining of nuclei (toxicity). The series is classed as cell-based, human. The conditions noted are these: increasing concentrations, FIG. 3B. The procedure:
This increased fluorescence directly correlates to increased collagen synthesis. The results of the positive control (TGFβ), the vehicle control for the TGFβ (Media Control), and the vehicle control for the alpha-ergocryptine (DMSO control) are also illustrated in FIG. 3A. […] Cell count was determined by staining the nuclei with 4′,6-diamidino-2-phenylindole (DAPI), which is a fluorescent stain that binds strongly to adenine-thymine rich regions in DNA. DAPI staining is a well-known technique for determining cell count in fluorescence microscopy.

On to `CC(C)C[C@H]1C(=O)N2CCC[C@H]2[C@]2(O)O[C@](NC(=O)[C@@H]3C=C4c5cccc6[nH]cc(c56)C[C@H]4N(C)C3)(C(C)C)C(=O)N12` [alpha-ergocryptine], for which the “COL1A1 expression (fluorescence of mCherry reporter)” value in the series with COL1A1 is given as “increased COL1A1 expression”. The “toxicity as determined by cell counts (DAPI)” value in series [1] is on record as “not toxic”.
